Seven compounds from patent publication US9708336B2, “Metallo-beta-lactamase inhibitors” (priority 2014, dated 2017) can be followed below.

Like-named read-outs stand apart in the source and are kept apart here.

For one experiment, the target named is IMP-1 (Serratia marcescens, UniProt P52699). The experiment in a line: biochemical. The experiment is classed as biochemical. Conditions: fluorescence assay with CCF2-FA substrate; read-out: IMP-1 IC50.
The next experiment deals with VIM-1 (Pseudomonas aeruginosa (strain ATCC 15692 / DSM 22644 / CIP 104116 / JCM 14847 / LMG 12228 / 1C / PRS 101 / PAO1), UniProt A0A0F7KYQ8). The experiment in a line: Enzyme activity: determination of IC50, fluorescence assay with CCF2-FA substrate (VIM-1). The experiment is classed as biochemical.
Experiment [1] concerns Klebsiella pneumoniae expressing VIM-1 (IHMA599644). The experiment in a line: Antibiotic potentiation activity: synergistic concentration (MITC95) with imipenem, OD600 growth. The experiment is classed as cell-based. The conditions noted are these: IHMA599644 (VIM-1), 95% inhibition of bacterial growth. A digest of the protocol:
(§1)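 Clinical MBL-producing strains (E. coli NDM-1, S. marcescens IMP-1, K. pneumoniae VIM-1) from overnight plates were diluted 1:100 into 1.1×CAMHB. Compound was tested with imipenem at 4 μg/ml (optionally 1 μg/ml) or without it. After 22–24 h at 35 °C, growth was read as OD600.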

Experiment [2] deals with Serratia marcescens expressing IMP-1 (CL5741). The description is as above. The experiment is classed as cell-based. Conditions: CL5741 (IMP-1), 95% inhibition of bacterial growth. A digest of the protocol:
as §1

Experiment [3] has as its system Escherichia coli expressing NDM-1 (CLB30016). The description is as above. The experiment is classed as cell-based. The conditions noted are these: CLB30016 (NDM-1), 95% inhibition of bacterial growth. The gist of the method: as §1
For another experiment, the target named is NDM-1 (Klebsiella pneumoniae, UniProt C7C422). In words: biochemical. The format is biochemical. The conditions noted are these: fluorescence assay with CCF2-FA substrate; read-out: NDM-1 IC50.
NDM-1, sequence (C7C422 whole entry, looked up, species assumed): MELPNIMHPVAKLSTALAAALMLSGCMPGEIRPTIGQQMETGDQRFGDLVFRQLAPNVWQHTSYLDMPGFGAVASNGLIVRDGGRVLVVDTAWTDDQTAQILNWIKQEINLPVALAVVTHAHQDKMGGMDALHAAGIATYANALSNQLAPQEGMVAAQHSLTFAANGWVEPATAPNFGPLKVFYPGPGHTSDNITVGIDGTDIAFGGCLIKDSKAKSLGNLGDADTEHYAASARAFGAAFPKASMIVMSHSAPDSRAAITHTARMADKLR
Setting [4] is: VIM-1 IC50, fluorescence assay with CCF2-FA substrate.
Where [5] appears, read: fluorescence assay with CCF2-FA substrate, read-out: VIM-1 IC50.

IMP-1, sequence (P52699 whole entry, looked up): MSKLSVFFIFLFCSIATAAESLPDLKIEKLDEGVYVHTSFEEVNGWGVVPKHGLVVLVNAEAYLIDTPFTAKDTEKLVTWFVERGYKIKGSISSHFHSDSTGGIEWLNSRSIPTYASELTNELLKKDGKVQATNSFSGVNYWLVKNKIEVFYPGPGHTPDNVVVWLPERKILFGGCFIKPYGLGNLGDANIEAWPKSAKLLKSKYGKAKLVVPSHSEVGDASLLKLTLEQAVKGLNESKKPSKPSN

Regarding `NS(=O)(=O)c1c(C(F)(F)F)ccc(-c2cnc3ccccn23)c1-c1nnn[nH]1` [Example 748, 3-imidazo[1,2-a]pyridin-3-yl-2-(1H-tetrazol-5-yl)-6-(trifluoromethyl)benzenesulfon-amide], the results for the IC50 on IMP-1, against VIM-1 (setting [4]) and on NDM-1 were 1.25 nM, 0.248 nM and 0.833 nM, respectively. The “Klebsiella pneumoniae MITC95” value in experiment [1] worked out at 6.25 µM. The “Serratia marcescens MITC95” value in experiment [2] was 6.25 µM. The “Escherichia coli MITC95” value in experiment [3] came out at 0.7813 µM.

For `Nc1ncnc2cc(-c3ccc(C(F)(F)F)c(S(N)(=O)=O)c3-c3nnn[nH]3)ccc12` [Example 749, 3-(4-aminoquinazolin-7-yl)-2-(1H-tetrazol-5-yl)-6-(trifluoromethyl)benzenesulfon-amide], the IC50 at IMP-1 came to 4.12 nM; against VIM-1 (setting [4]), 0.262 nM; at NDM-1, 2.35 nM. Besides, the “Klebsiella pneumoniae MITC95” value in experiment [1] is 6.25 µM. For the same compound, the “Serratia marcescens MITC95” value in experiment [2] turned out to be 12.5 µM. In addition, the “Escherichia coli MITC95” value in experiment [3] stood at 3.125 µM.

As to `Nc1nc(N)c2ccc(-c3ccc(C(F)(F)F)c(S(N)(=O)=O)c3-c3nnn[nH]3)cc2n1` [Example 750, 3-(2,4-diaminoquinazolin-7-yl)-2-(1H-tetrazol-5-yl)-6-(trifluoromethyl)benzenesulfon-amide], the values for the concentration for half-maximal inhibition (IC50) at IMP-1, against VIM-1 (setting [4]) and on NDM-1 were 21.5 nM, 0.432 nM and 4.75 nM, respectively. For the same compound, in experiment [1], the “Klebsiella pneumoniae MITC95” value is 3.125 µM. The “Serratia marcescens MITC95” value in experiment [2] was found to be 6.25 µM. In experiment [3], the “Escherichia coli MITC95” value worked out at 1.563 µM.

For `Nc1nccc2cc(-c3ccc(C(F)(F)F)c(S(N)(=O)=O)c3-c3nnn[nH]3)ccc12` [Example 751, 3-(1-aminoisoquinolin-6-yl)-2-(1H-tetrazol-5-yl)-6-(trifluoromethyl)benzenesulfon-amide], the IC50 at IMP-1 came to 5.63 nM; at VIM-1 (setting [5]), 0.108 nM; at NDM-1 it was 0.962 nM. Besides, the “Klebsiella pneumoniae MITC95” value in experiment [1] is 3.125 µM. Also, in experiment [2], the “Serratia marcescens MITC95” value was found to be 3.125 µM. In experiment [3], the “Escherichia coli MITC95” value amounted to 0.7813 µM.

For the compound `CCn1c(N)nc2cc(-c3ccc(C(F)(F)F)c(S(N)(=O)=O)c3-c3nnn[nH]3)ccc21` [Example 752, 3-(2-amino-1-ethyl-1H-benzimidazol-5-yl)-2-(1H-tetrazol-5-yl)-6-(trifluoromethyl)benzenesulfon-amide], the half-inhibitory concentration (IC50) is 6.25 nM at IMP-1, 0.677 nM at VIM-1 (setting [5]) and 2.33 nM at NDM-1. The “Klebsiella pneumoniae MITC95” value in experiment [1] was 25 µM. In experiment [2], the “Serratia marcescens MITC95” value amounted to 12.5 µM. In experiment [3], the “Escherichia coli MITC95” value was 1.563 µM.

For `Nc1nccc(-c2cccc(-c3ccc(C(F)(F)F)c(S(N)(=O)=O)c3-c3nnn[nH]3)c2)n1` [Example 753, 3′-(2-aminopyrimidin-4-yl)-2-(1H-tetrazol-5-yl)-4-(trifluoromethyl)biphenyl-3-sulfonamdie], the values for the IC50 on IMP-1, on VIM-1 (setting [5]) and on NDM-1 were 2.02 nM, 0.754 nM and 1.01 nM, respectively. Moreover, in experiment [1], the “Klebsiella pneumoniae MITC95” value worked out at 100 µM. The “Serratia marcescens MITC95” value in experiment [2] is 12.5 µM. For the same compound, the “Escherichia coli MITC95” value in experiment [3] stood at 12.5 µM.

As to `N[C@@H]1CN(c2ccc(C(F)(F)F)c(S(N)(=O)=O)c2-c2nnn[nH]2)CC12CC2` [Example 754, 3-[(7S)-7-amino-5-azaspiro[2.4]hept-5-yl]-2-(1H-tetrazol-5-yl)-6-(trifluoromethyl) benzenesulfonamide], the figures for the IC50 at IMP-1, at VIM-1 (setting [5]) and on NDM-1 were 869 nM, 7.67 nM and 596 nM, respectively. Besides, in experiment [1], the “Klebsiella pneumoniae MITC95” value worked out at 12.5 µM. In addition, in experiment [2], the “Serratia marcescens MITC95” value was determined as 50 µM. In addition, in experiment [3], the “Escherichia coli MITC95” value amounted to 25 µM.

A word on the IC50: it is the concentration that inhibits the measured activity by half.
